According to PubChem BioAssay (NCI):
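The compound was tested at five concentrations on cells cultured in 96-well plates, with a 48-hour exposure period. The concentration for 50% growth inhibition is given as GI50. TGI: total growth inhibition.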

What was measured:
Experiment in all cases: NCI tumour cell line growth inhibition, 48 h
786-0 renal = tested on: 786-0 renal
A498 renal = tested on: A498 renal
A549 NSCLC = tested on: A549 NSCLC
ACHN renal = tested on: ACHN renal
BT-549 breast = tested on: BT-549 breast
CAKI-1 renal = tested on: CAKI-1 renal
CCRF-CEM leukemia = tested on: CCRF-CEM leukemia
COLO 205 colon = tested on: COLO 205 colon
DU-145 prostate = tested on: DU-145 prostate
EKVX NSCLC = tested on: EKVX NSCLC
HCC-2998 colon = tested on: HCC-2998 colon
HCT-116 colon = tested on: HCT-116 colon
HCT-15 colon = tested on: HCT-15 colon
HL-60(TB) leukemia = tested on: HL-60(TB) leukemia
HOP-62 NSCLC = tested on: HOP-62 NSCLC
HOP-92 NSCLC = tested on: HOP-92 NSCLC
HS 578T breast = tested on: HS 578T breast
HT29 colon = tested on: HT29 colon
IGROV1 ovarian = tested on: IGROV1 ovarian
K-562 leukemia = tested on: K-562 leukemia
KM12 colon = tested on: KM12 colon
LOX IMVI melanoma = tested on: LOX IMVI melanoma
M14 melanoma = tested on: M14 melanoma
MALME-3M melanoma = tested on: MALME-3M melanoma
MCF7 breast = tested on: MCF7 breast
MDA-MB-231 breast = tested on: MDA-MB-231 breast
MDA-MB-435 = tested on: MDA-MB-435
MOLT-4 leukemia = tested on: MOLT-4 leukemia
NCI-H226 lung = tested on: NCI-H226 lung
NCI-H23 lung = tested on: NCI-H23 lung
NCI-H460 lung = tested on: NCI-H460 lung
NCI-H522 lung = tested on: NCI-H522 lung
NCI/ADR-RES ovarian = tested on: NCI/ADR-RES ovarian
OVCAR-3 ovarian = tested on: OVCAR-3 ovarian
OVCAR-4 ovarian = tested on: OVCAR-4 ovarian
OVCAR-5 ovarian = tested on: OVCAR-5 ovarian
OVCAR-8 ovarian = tested on: OVCAR-8 ovarian
PC-3 prostate = tested on: PC-3 prostate
RPMI-8226 leukemia = tested on: RPMI-8226 leukemia
RXF 393 renal = tested on: RXF 393 renal
SF-268 CNS = tested on: SF-268 CNS
SF-295 CNS = tested on: SF-295 CNS
SF-539 CNS = tested on: SF-539 CNS
SK-MEL-2 melanoma = tested on: SK-MEL-2 melanoma
SK-MEL-28 melanoma = tested on: SK-MEL-28 melanoma
SK-MEL-5 melanoma = tested on: SK-MEL-5 melanoma
SK-OV-3 ovarian = tested on: SK-OV-3 ovarian
SN12C renal = tested on: SN12C renal
SNB-19 CNS = tested on: SNB-19 CNS
SNB-75 CNS = tested on: SNB-75 CNS
SR leukemia = tested on: SR leukemia
SW-620 colon = tested on: SW-620 colon
T-47D breast = tested on: T-47D breast
TK-10 renal = tested on: TK-10 renal
U251 CNS = tested on: U251 CNS
UACC-257 melanoma = tested on: UACC-257 melanoma
UACC-62 melanoma = tested on: UACC-62 melanoma
UO-31 renal = tested on: UO-31 renal

## N#Cc1cccc(/C(N)=N/C(N)=N/c2nc3ccccc3s2)c1
786-0 renal
  GI50: 733 nM
  TGI: > 77700 nM
A498 renal
  GI50: 1130 nM
  TGI: 11600 nM
A549 NSCLC
  GI50: 3480 nM
  TGI: > 100000 nM
ACHN renal
  GI50: 855 nM
  TGI: > 100000 nM
BT-549 breast
  GI50: 1030 nM
  TGI: > 59300 nM
CAKI-1 renal
  GI50: 538 nM
  TGI: > 34300 nM
CCRF-CEM leukemia
  GI50: 551 nM
  TGI: > 100000 nM
COLO 205 colon
  GI50: 1020 nM
  TGI: > 100000 nM
DU-145 prostate
  GI50: 1560 nM
  TGI: > 100000 nM
EKVX NSCLC
  GI50: 2410 nM
  TGI: > 100000 nM
HCC-2998 colon
  GI50: 2850 nM
  TGI: > 100000 nM
HCT-116 colon
  GI50: 487 nM
  TGI: > 100000 nM
HCT-15 colon
  GI50: 443 nM
  TGI: > 100000 nM
HL-60(TB) leukemia
  GI50: 311 nM
HOP-62 NSCLC
  GI50: 609 nM
  TGI: 18200 nM
HOP-92 NSCLC
  GI50: 2750 nM
  TGI: > 60600 nM
HS 578T breast
  GI50: 531 nM
  TGI: > 43300 nM
HT29 colon
  GI50: 450 nM
  TGI: > 100000 nM
IGROV1 ovarian
  GI50: 826 nM
  TGI: > 100000 nM
K-562 leukemia
  GI50: 316 nM
  TGI: > 100000 nM
KM12 colon
  GI50: 511 nM
  TGI: > 100000 nM
LOX IMVI melanoma
  GI50: 614 nM
  TGI: > 100000 nM
M14 melanoma
  GI50: 513 nM
  TGI: > 100000 nM
MALME-3M melanoma
  GI50: 1570 nM
  TGI: > 66700 nM
MCF7 breast
  GI50: 427 nM
  TGI: > 100000 nM
MDA-MB-231 breast
  GI50: 2640 nM
  TGI: > 100000 nM
MDA-MB-435
  GI50: 211 nM
  TGI: 776 nM
MOLT-4 leukemia
  GI50: 657 nM
  TGI: > 25600 nM
NCI-H226 lung
  GI50: 1220 nM
  TGI: 73800 nM
NCI-H23 lung
  GI50: 1790 nM
  TGI: > 100000 nM
NCI-H460 lung
  GI50: 479 nM
  TGI: > 100000 nM
NCI-H522 lung
  GI50: 481 nM
  TGI: > 100000 nM
NCI/ADR-RES ovarian
  GI50: 437 nM
  TGI: > 100000 nM
OVCAR-3 ovarian
  GI50: 508 nM
  TGI: > 23200 nM
OVCAR-4 ovarian
  GI50: 2740 nM
  TGI: > 100000 nM
OVCAR-5 ovarian
  GI50: 3650 nM
  TGI: > 100000 nM
OVCAR-8 ovarian
  GI50: 1590 nM
  TGI: > 100000 nM
PC-3 prostate
  GI50: 840 nM
  TGI: > 100000 nM
RPMI-8226 leukemia
  GI50: 686 nM
  TGI: > 100000 nM
RXF 393 renal
  GI50: 388 nM
  TGI: 2420 nM
SF-268 CNS
  GI50: 1700 nM
  TGI: > 71700 nM
SF-295 CNS
  GI50: 504 nM
  TGI: > 41000 nM
SF-539 CNS
  GI50: 457 nM
  TGI: 4050 nM
SK-MEL-2 melanoma
  GI50: 1330 nM
  TGI: > 60700 nM
SK-MEL-28 melanoma
  GI50: 5330 nM
  TGI: > 100000 nM
SK-MEL-5 melanoma
  GI50: 699 nM
  TGI: > 28200 nM
SK-OV-3 ovarian
  GI50: 1790 nM
  TGI: 40700 nM
SN12C renal
  GI50: 1130 nM
  TGI: > 100000 nM
SNB-19 CNS
  GI50: 614 nM
  TGI: > 72600 nM
SNB-75 CNS
  GI50: 213 nM
  TGI: 9330 nM
SR leukemia
  GI50: 437 nM
  TGI: > 100000 nM
SW-620 colon
  GI50: 485 nM
  TGI: > 100000 nM
T-47D breast
  GI50: 659 nM
  TGI: > 100000 nM
TK-10 renal
  GI50: 9170 nM
  TGI: > 92400 nM
U251 CNS
  GI50: 591 nM
  TGI: > 54400 nM
UACC-257 melanoma
  GI50: > 100000 nM
  TGI: > 100000 nM
UACC-62 melanoma
  GI50: 418 nM
  TGI: > 71500 nM
UO-31 renal
  GI50: 1810 nM
  TGI: > 100000 nM
